Assays:
tumour metastasis = conditions: literature; cited from earlier work
[1] = tested on: angiogenesis/capillary network formation; conditions: literature; cited from earlier work
human urokinase = biological target: T1, human urokinase (Homo sapiens, UniProt P00749); assay: Inhibition of human urokinase (HMWT human urokinase, substrate S-2444); format: biochemical; conditions: S-2444 substrate, read-out: Ki uPA
T1 construct: the urokinase used was HMWT Human Urokinase (Calbiochem 672081); purchased Calbiochem 672081

human tPA = human tPA (Homo sapiens, UniProt P00750); assay: Inhibition of human tPA (substrate S-2288, tPA stimulator); format: biochemical; conditions: selectivity for uPA over human tPA
human plasmin = human plasmin (Homo sapiens, UniProt P00747); assay: Inhibition of human plasmin (substrate Chromozym-PL); format: biochemical; conditions: selectivity for uPA over human plasmin
human plasmin, sequence (P00747 97-810): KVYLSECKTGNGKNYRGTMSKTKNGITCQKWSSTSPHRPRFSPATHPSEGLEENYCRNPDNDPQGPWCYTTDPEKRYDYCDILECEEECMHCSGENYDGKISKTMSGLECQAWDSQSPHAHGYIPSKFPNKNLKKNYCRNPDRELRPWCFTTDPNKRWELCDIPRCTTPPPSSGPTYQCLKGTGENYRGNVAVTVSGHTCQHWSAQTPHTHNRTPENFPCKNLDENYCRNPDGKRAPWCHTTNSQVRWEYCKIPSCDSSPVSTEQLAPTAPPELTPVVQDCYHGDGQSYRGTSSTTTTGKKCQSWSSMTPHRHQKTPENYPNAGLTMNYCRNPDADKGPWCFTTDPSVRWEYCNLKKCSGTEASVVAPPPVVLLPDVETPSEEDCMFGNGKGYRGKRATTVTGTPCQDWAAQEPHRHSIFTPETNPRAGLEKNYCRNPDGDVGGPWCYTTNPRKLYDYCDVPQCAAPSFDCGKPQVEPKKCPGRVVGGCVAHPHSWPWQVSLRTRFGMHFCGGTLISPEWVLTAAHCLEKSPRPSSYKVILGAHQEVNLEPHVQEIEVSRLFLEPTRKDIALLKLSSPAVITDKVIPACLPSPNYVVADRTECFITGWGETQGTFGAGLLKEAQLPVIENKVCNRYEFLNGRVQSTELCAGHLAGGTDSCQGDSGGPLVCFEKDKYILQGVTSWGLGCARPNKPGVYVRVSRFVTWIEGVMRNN

human tPA, sequence (P00750 33-562): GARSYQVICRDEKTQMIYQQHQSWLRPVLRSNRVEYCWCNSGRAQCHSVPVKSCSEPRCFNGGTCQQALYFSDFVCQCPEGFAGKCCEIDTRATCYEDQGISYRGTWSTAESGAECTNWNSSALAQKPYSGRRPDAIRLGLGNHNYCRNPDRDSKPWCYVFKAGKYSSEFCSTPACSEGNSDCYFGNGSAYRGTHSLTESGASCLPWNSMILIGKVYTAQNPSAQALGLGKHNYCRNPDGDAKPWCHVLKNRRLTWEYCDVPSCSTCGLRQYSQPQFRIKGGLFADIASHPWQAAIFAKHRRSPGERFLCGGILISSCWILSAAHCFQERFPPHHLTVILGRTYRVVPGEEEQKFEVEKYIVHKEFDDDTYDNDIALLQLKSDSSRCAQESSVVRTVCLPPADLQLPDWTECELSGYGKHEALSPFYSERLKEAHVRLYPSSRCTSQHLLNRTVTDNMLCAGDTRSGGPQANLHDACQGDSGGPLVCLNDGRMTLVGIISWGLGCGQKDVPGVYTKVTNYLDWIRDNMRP

| Ki (human urokinase) [nM] | vs. tPA* (selectivity figures) (human tPA) | vs. plasmin* (selectivity figures) (human plasmin) | Structure (SMILES) | inhibition of tumour metastasis/invasion in vivo (tumour metastasis) | inhibition of angiogenesis/capillary network formation in vitro [1] |
| --- | --- | --- | --- | --- | --- |
|  |  |  | N=C(N)NC(=O)c1nc(Cl)c(N)nc1N [Amiloride] | inhibit tumour metastasis in vivo | angiogenesis/capillary network formation in vitro |
| 249 | 380 | 204 | NC(N)=Nc1nccc2ccc(Br)cc12 [Example 15] |  |  |
| 400 | 88 | 68 | NC(N)=Nc1nccc2ccc(/C=C/c3ccccc3)cc12 [Example 19] |  |  |

— patent publication US6248738A, “Isoquinolines as urokinase inhibitors” (Pfizer Inc., priority 1997, dated 2001)
